For one assay, the system named is OVCAR3 cells. Nature of the assay: Inhibition of cell proliferation, CellTiter-Glo, OVCAR3. The class given is cell-based. Conditions: Homo sapiens, OVCAR-3, 72 h, Efficacy Example 2 (Table 2), 72 h incubation. The method, then: (§1) The compounds were each prepared with 100% DMSO into 10 mM mother liquor.
(§2) HCC70 cells and OVCAR3 cells were digested and counted. Cells were diluted to an appropriate concentration according to cell density. 100 μL of cells were added to each well of a 96-well plate. Medium wells served as blank control (Min). The cells were incubated overnight in an incubator at 37° C./5% CO2.
(§3) A 200-fold stock solution of a compound was prepared with DMSO, and the compound was diluted with growth medium to a 3-fold stock solution, i.e., […] of each of 200-fold stock solutions of compound at different concentrations was added to 197 μL of medium. 50 μL of diluted compound was added to each well and the mixture was incubated at 37° C./5% CO2 for 72 h.
(§4) The 96-well plate was equilibrated to room temperature before detection. 40 μL of CellTiter-Glo solution was added to each well. The mixture was mixed for 2 min using a horizontal shaker to induce cell lysis. The mixture was incubated at room temperature for 60 min to stabilize […] signals. Fluorescence values were read on ENVISION.
(§5) (1) Data was analyzed by GraphPad Prism 5
(§6) (2) % inhibition rate=(maximum signal−compound signal)/(maximum signal−minimum signal)×100
(§7) (3) Maximum signal: signal of DMSO well
(§8) (4) Minimum signal: signal of medium well
(§9) The effect of SZ-015200, SZ-015256 and SZ-015268 on cell proliferation after incubation with HCC70, OVCAR-3, HCT116 and HCC1806 cells for 3 days was detected according to the method described in Efficacy Example 2, and the results are shown in Table 3.

A further assay deals with HCC70 cells. Nature of the assay: Inhibition of cell proliferation, CellTiter-Glo, HCC70. It counts as cell-based. Particulars: Homo sapiens, HCC70, 72 h, Efficacy Example 2 (Table 2), 72 h incubation. The method, then:
as §1, §2, §3, §4, §5, §6, §7, §8, §9
A general note: Cellular ATP, detected with luciferase, serves as a proxy for viable cell number.

Usually IC50 stands for the concentration needed to halve the response being measured.

Consider `CC(C)n1cnc2c(NC3CCN(C(=O)O[C@H]4CCN(C(=O)/C=C/CN(C)C)C4)CC3)nc(CO)nc21` [SZ-015297, (S,E)-1-(4-(dimethylamino)but-2-enoyl)pyrrolidin-3-yl-4-((2-(hydroxymethyl)-9-isopropyl-9H-purin-6-yl)amino)piperidine-1-carboxylate], for which the half-inhibitory concentration (IC50) in the assay with OVCAR3 cells amounted to 168 nM; in the assay with HCC70 cells, 252 nM.

Consider `CC(C)Nc1cc(NC2CCN(C(=O)O[C@H]3CCN(C(=O)/C=C/CN(C)C)C3)CC2)c2ncn(C(C)C)c2n1` [SZ-015303, (S,E)-1-(4-(dimethylamino)but-2-enoyl)pyrrolidin-3-yl 4-((3-isopropyl-5-(isopropylamino)-3H-imidazo[4,5-b]pyridin-7-yl)amino)piperidine-1-carboxylate], for which the figures for the IC50 in the assay with OVCAR3 cells and in the assay with HCC70 cells were 114 nM and 129 nM, respectively.

As for `CC[C@H](CO)Nc1cc(NC2CCN(C(=O)O[C@H]3CCN(C(=O)/C=C/CN(C)C)C3)CC2)c2ncn(C(C)C)c2n1` [SZ-015306, (S)-1-((E)-4-(dimethylamino)but-2-enoyl)pyrrolidin-3-yl 4-((5-(((R)-1-hydroxybutan-2-yl)amino)-3-isopropyl-3H-imidazo[4,5-b]pyridin-7-yl)amino)piperidine-1-carboxylate], the values for the 50% inhibitory concentration (IC50) with OVCAR3 cells and in the assay with HCC70 cells were 281 nM and 205 nM, respectively.

In the case of `Cc1cc(NC2CCN(C(=O)OC3CN(C(=O)/C=C/CN(C)C)C3)CC2)c2ncn(C(C)C)c2n1` [SZ-015307, (E)-1-(4-(dimethylamino)but-2-enoyl)azetidin-3-yl 4-((3-isopropyl-5-methyl-3H-imidazo[4,5-b]pyridin-7-yl)amino)piperidine-1-carboxylate], the results for the half-maximal inhibitory concentration (IC50) in the assay with OVCAR3 cells and in the assay on HCC70 cells were 139 nM and 78 nM, respectively.

For the compound `CCc1nc(NC2CCN(C(=O)O[C@H]3CCN(C(=O)/C=C/CN(C)C)C3)CC2)c2ncn(C(C)C)c2n1` [SZ-015310, (S,E)-1-(4-(dimethylamino)but-2-enoyl)pyrrolidin-3-yl 4-((2-ethyl-9-isopropyl-9H-purin-6-yl)amino)piperidine-1-carboxylate], the IC50 with OVCAR3 cells came out at 58.4 nM; in the assay with HCC70 cells, 29.5 nM.

As to `COCCNc1cc(NC2CCN(C(=O)O[C@H]3CCN(C(=O)/C=C/CN(C)C)C3)CC2)c2ncn(C(C)C)c2n1` [SZ-015311, (S,E)-1-(4-(dimethylamino)but-2-enoyl)pyrrolidin-3-yl 4-((3-isopropyl-5-((2-methoxyethyl)amino)-3H-imidazo[4,5-b]pyridin-7-yl)amino)piperidine-1-carboxylate], the IC50 with OVCAR3 cells stood at 99.6 nM; in the assay with HCC70 cells it was 95 nM.

As for `CC[C@H](CO)Nc1cc(NC2CCN(C(=O)O[C@H]3CCN(C(=O)/C=C/CN(C)C)C3)CC2)c2ncc(C(C)C)n2n1` [SZ-015317, (S)-1-((E)-4-(dimethylamino)but-2-enoyl)pyrrolidin-3-yl 4-((6-(((R)-1-hydroxybutan-2-yl)amino)-3-isopropylimidazo[1,2-b]pyridazin-8-yl)amino) piperidine-1-carboxylate], the IC50 with OVCAR3 cells came out at 429 nM; in the assay on HCC70 cells it was 237 nM.

For `CC(C)c1cc(NC2CCN(C(=O)O[C@H]3CCN(C(=O)/C=C/CN(C)C)C3)CC2)c2ncn(C(C)C)c2n1` [SZ-015319, (S,E)-1-(4-(dimethylamino)but-2-enoyl)pyrrolidin-3-yl 4-((3,5-diisopropyl-3H-imidazo[4,5-b]pyridin-7-yl)amino)piperidine-1-carboxylate], the half-inhibitory concentration (IC50) with OVCAR3 cells amounted to 72.5 nM; in the assay on HCC70 cells it was 50.5 nM.

Regarding `CC[C@H](CO)Nc1nc(NC2CCN(C(=O)O[C@H]3CCN(C(=O)/C=C/CN(C)C)C3)CC2)n2ncc(C(C)C)c2n1` [SZ-015326, (S)-1-((E)-4-(dimethylamino)but-2-enoyl)pyrrolidin-3-yl 4-((2-(((R)-1-hydroxybutan-2-yl)amino)-8-isopropylpyrazolo[1,5-a][1,3,5]triazin-4-yl)amino)piperidine-1-carboxylate], the IC50 in the assay with OVCAR3 cells is 33.2 nM; with HCC70 cells, 50.3 nM.

On to `CC(C)Nc1nc(NC2CCN(C(=O)O[C@H]3CCN(C(=O)/C=C/CN(C)C)C3)CC2)c2ncc(C(C)C)n2n1` [SZ-015328, (S,E)-1-(4-(dimethylamino)but-2-enoyl)pyrrolidin-3-yl 4-((7-isopropyl-2-(isopropylamino)imidazo[2,1-f][1,2,4]triazin-4-yl)amino)piperidine-1-carboxylate], for which the IC50 in the assay with OVCAR3 cells is 110 nM; in the assay with HCC70 cells, 252 nM.

As for `CC(C)Nc1nc(NC2CCN(C(=O)O[C@H]3CCN(C(=O)/C=C/CN(C)C)C3)CC2)n2ncc(C(C)C)c2n1` [SZ-015330, (S,E)-1-(4-(dimethylamino)but-2-enoyl)pyrrolidin-3-yl 4-((8-isopropyl-2-(isopropylamino)pyrazolo[1,5-a][1,3,5]triazin-4-yl)amino)piperidine-1-carboxylate], the figures for the IC50 in the assay on OVCAR3 cells and in the assay with HCC70 cells were 44 nM and 61 nM, respectively.

Consider `CC(C)c1cnn2c(NC3CCN(C(=O)O[C@H]4CCN(C(=O)/C=C/CN(C)C)C4)CC3)nc(NC3CC3)nc12` [SZ-015331, (S,E)-1-(4-(dimethylamino)but-2-enoyl)pyrrolidin-3-yl 4-((2-(cyclopropylamino)-8-isopropylpyrazolo[1,5-a][1,3,5]triazin-4-yl)amino)piperidine-1-carboxylate], for which the values for the IC50 in the assay with OVCAR3 cells and in the assay with HCC70 cells were 36.7 nM and 70.1 nM, respectively.

`CC(C)Oc1nc(NC2CCN(C(=O)O[C@H]3CCN(C(=O)/C=C/CN(C)C)C3)CC2)n2ncc(C(C)C)c2n1` [SZ-015332, (S,E)-1-(4-(dimethylamino)but-2-enoyl)pyrrolidin-3-yl 4-((2-isopropoxy-8-isopropylpyrazolo[1,5-a][1,3,5]triazin-4-yl)amino)piperidine-1-carboxylate]: the values for the half-maximal inhibitory concentration (IC50) with OVCAR3 cells and with HCC70 cells were 44.7 nM and 51.5 nM, respectively.

Regarding `CC(C)c1cnc2c(NC3CCN(C(=O)O[C@H]4CCN(C(=O)/C=C/CN(C)C)C4)CC3)nc(C3CC3)nn12` [SZ-015338, (S,E)-1-(4-(dimethylamino)but-2-enoyl)pyrrolidin-3-yl 4-((2-cyclopropyl-7-isopropylimidazo[2,1-f][1,2,4]triazin-4-yl)amino)piperidine-1-carboxylate], the half-maximal inhibitory concentration (IC50) is 29.7 nM in the assay on OVCAR3 cells and 48.7 nM in the assay on HCC70 cells.

`CC(C)c1nc(NC2CCN(C(=O)O[C@H]3CCN(C(=O)/C=C/CN(C)C)C3)CC2)c2ncc(C(C)C)n2n1` [SZ-015339, (S,E)-1-(4-(dimethylamino)but-2-enoyl)pyrrolidin-3-yl 4-((2,7-diisopropylimidazo[2,1-f][1,2,4]triazin-4-yl)amino)piperidine-1-carboxylate]: the 50% inhibitory concentration (IC50) in the assay with OVCAR3 cells was 64.3 nM; with HCC70 cells it was 54.7 nM.

As for `CC(C)c1cn2c(C(C)C)cnc2c(NC2CCN(C(=O)O[C@H]3CCN(C(=O)/C=C/CN(C)C)C3)CC2)n1` [SZ-015342, (S,E)-1-(4-(dimethylamino)but-2-enoyl)pyrrolidin-3-yl 4-((3,6-diisopropylimidazo[1,2-a]pyrazin-8-yl)amino)piperidine-1-carboxylate], the 50% inhibitory concentration (IC50) with OVCAR3 cells was found to be 204 nM; with HCC70 cells it was 419 nM.

As for `CC(C)Oc1nc(NC2CCN(C(=O)O[C@H]3CCN(C(=O)/C=C/CN(C)C)C3)CC2)c2ncc(C(C)C)n2n1` [SZ-015346, (S,E)-1-(4-(dimethylamino)but-2-enoyl)pyrrolidin-3-yl 4-((2-isopropoxy-7-isopropylimidazo[2,1-f][1,2,4]triazin-4-yl)amino)piperidine-1-carboxylate], the IC50 with OVCAR3 cells turned out to be 48.8 nM; in the assay with HCC70 cells, 140 nM.

These data come from US20230115907A1, “HETEROCYCLIC COMPOUND AND PHARMACEUTICAL COMPOSITION, PREPARATION METHOD, INTERMEDIATE AND USE THEREOF” (EVOPOINT BIOSCIENCES CO., LTD., priority 2019, published 2023).
